Measurements from ChEMBL document CHEMBL2331104, “Characterization of human carbonic anhydrase XII stability and inhibitor binding” (Bioorg Med Chem, 2013).
Activity calls are given as the source filed them. The calls are words filed in the database; no cut-off is given here.

Columns and labels:
Carbonic anhydrase 12 [1] = molecular target: T1, Carbonic anhydrase 12 (Homo sapiens, UniProt O43570); assay: Inhibition of human carbonic anhydrase 12
Carbonic anhydrase 12 [2] = molecular target: T1, Carbonic anhydrase 12; assay: Binding affinity to human recombinant carbonic anhydrase 12 expressed in Escherichia coli Rosetta (DE3) assessed as protein stability at pH 10 by fluorescent thermal shift assay
Carbonic anhydrase 12 [3] = molecular target: T1, Carbonic anhydrase 12; assay: Binding affinity to human recombinant carbonic anhydrase 12 expressed in Escherichia coli Rosetta (DE3) assessed as protein stability at pH 5 by fluorescent thermal shift assay
Carbonic anhydrase 12 [4] = molecular target: T1, Carbonic anhydrase 12; assay: Binding affinity to human recombinant carbonic anhydrase 12 expressed in Escherichia coli Rosetta (DE3) assessed as protein stability at pH 6 by fluorescent thermal shift assay

T1 sequence (O43570 whole entry): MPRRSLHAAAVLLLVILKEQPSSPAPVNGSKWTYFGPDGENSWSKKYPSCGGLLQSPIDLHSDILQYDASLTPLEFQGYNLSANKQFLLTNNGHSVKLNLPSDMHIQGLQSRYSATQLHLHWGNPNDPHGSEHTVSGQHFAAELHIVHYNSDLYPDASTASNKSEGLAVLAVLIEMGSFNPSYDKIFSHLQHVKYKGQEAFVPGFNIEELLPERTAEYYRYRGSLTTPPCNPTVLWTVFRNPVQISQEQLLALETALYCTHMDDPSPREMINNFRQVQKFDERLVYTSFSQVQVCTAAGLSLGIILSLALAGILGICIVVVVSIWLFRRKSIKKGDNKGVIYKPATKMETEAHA

Ki (Carbonic anhydrase 12 [1]) [nM] | Activity (Carbonic anhydrase 12 [2]) | Activity (Carbonic anhydrase 12 [3]) | Activity (Carbonic anhydrase 12 [4]) | Compound
0.98 | – | – | – | CCCc1ccc2ccc(=O)oc2c1C(C)=O
– | inactive | inactive | Active | CCOc1ccc2nc(S(N)(=O)=O)sc2c1
1 | – | – | – | CCc1ccc2ccc(=O)oc2c1C(C)=O
– | inactive | inactive | Active | NS(=O)(=O)C(F)(F)F
